What was measured:
[1] = Stability of hydrocortisone hemisuccinate in PVOH hydrogels and PEO matrices (HPLC); assay type: physicochemical
Protocol: The stability of hydrocortisone hemisuccinate (HCHS), a hydrolytically unstable compound that forms hydrocortisone and succinic acid via hydrolysis, in PVOH hydrogels and PEO matrices was investigated.
In a separate set of experiments (FIGS. 3A and 3B), the stability of HCHS in PVOH hydrogels and PEO matrices was examined at 23° C. and 40° C. over a period of three days.

[2] = transdermal electrotransport, FIGS. 5A and 5B
[3] = Stability of apomorphine in aqueous solution and in PEO matrices; assay type: physicochemical; conditions: PEO films cast using 2:1 acetonitrile:methanol; low formate or non-radiation crosslinked PEO; FIG. 4
[4] = aqueous solutions of apomorphine; cited from earlier work

hydrocortisone hemisuccinate [HCHS]
stability of HCHS in PEO matrices vs PVOH hydrogels ([1]; 40° C., over a period of three days, FIGS. 3A and 3B): Improved stability
stability of HCHS in PEO matrix compared with PVOH hydrogel (HPLC chromatogram) ([1]; PEO film made using acetonitrile as the solvent vs PVOH hydrogel, FIG. 2): more stable in the PEO matrix than in the PVOH hydrogel

CN1CCc2cccc3c2[C@H]1Cc1ccc(O)c(O)c1-3 [apomorphine]
in vitro flux in PEO films compared with PVOH hydrogels [2]: comparable
time over which formulations containing PEO were stable [3]: up to 4 weeks
time to rapid oxidation in aqueous solutions [4]: less than 30 minutes
